Patent US11540518B2, “Fungicidal oxadiazoles” (FMC Corporation, priority 2017, dated 2023)

How the values were obtained:
[1] = test system: Phakopsora pachyrhizi; test: Test A: Asian soybean rust control on soybean seedlings; format: in vivo; settings: sprayed to run-off on soybean seedlings, inoculated the following day, 100 = 100% disease control, 0 = no control; for pest or weed control at 10 ppm: Phakopsora pachyrhizi, 216 h, read-out: Test A disease control rating
Excerpt: General protocol for preparing test suspensions for Tests A-C: the test compounds were first dissolved in acetone in an amount equal to 3% of the final volume and then suspended at the desired concentration (in ppm) in acetone and purified water (50/50 mix by volume) containing 250 ppm of the surfactant PEG400 (polyhydric alcohol esters). The resulting test suspensions were then used in Tests A-C.
The test solution was sprayed to the point of run-off on soybean seedlings. The following day the seedlings were inoculated with a spore suspension of Phakopsora pachyrhizi (the causal agent of Asian soybean rust) and incubated in a saturated atmosphere at 22° C. for 24 h, and then moved to a growth chamber at 22° C. for 8 days, after which time visual disease ratings were made.
Results for Tests A-C are given in Table A. In the Table, a rating of 100 indicates 100% disease control and a rating of 0 indicates no disease control (relative to the controls). A dash (-) indicates the compound was not tested.

[2] = test system: Puccinia recondita f. sp. tritici; test: Test C: wheat leaf rust control on wheat seedlings; format: in vivo; settings: sprayed to run-off on wheat seedlings, inoculated the following day, 100 = 100% disease control, 0 = no control; for pest or weed control at 10 ppm: Puccinia recondita, 168 h, read-out: Test C disease control rating
Excerpt: General protocol for preparing test suspensions for Tests A-C: the test compounds were first dissolved in acetone in an amount equal to 3% of the final volume and then suspended at the desired concentration (in ppm) in acetone and purified water (50/50 mix by volume) containing 250 ppm of the surfactant PEG400 (polyhydric alcohol esters). The resulting test suspensions were then used in Tests A-C. The test solution was sprayed to the point of run-off on wheat seedlings. The following day the seedlings were inoculated with a spore suspension of Puccinia recondita f. sp. tritici (the causal agent of wheat leaf rust) and incubated in a saturated atmosphere at 20° C. for 24 h, and then moved to a growth chamber at 20° C. for 6 days, after which time disease ratings were made. Results for Tests A-C are given in Table A. In the Table, a rating of 100 indicates 100% disease control and a rating of 0 indicates no disease control (relative to the controls). A dash (-) indicates the compound was not tested.

CN(C)C(=O)OCCCc1ccc(-c2noc(C(F)(F)F)n2)cc1 [Compound 28]
Test A disease control rating ([1]; 10 ppm): 100%
Test C disease control rating ([2]; 10 ppm): 40%

C#CCCNC(=O)OCCc1ccc(-c2noc(C(F)(F)F)n2)cc1 [Compound 66]
Test A disease control rating ([1]; 50 ppm): 100%
Test C disease control rating ([2]; 50 ppm): 100%

CCNC(=O)OC(C)c1ccc(-c2noc(C(F)(F)F)n2)cc1 (racemic) [Compound 19]
Test A disease control rating ([1]; 10 ppm): 100%
Test C disease control rating ([2]; 10 ppm): 74%

NC(=O)OC(c1ccccc1)c1ccc(-c2noc(C(F)(F)F)n2)cc1 (stereo not shown) [Compound 117]
Test A disease control rating ([1]; 250 ppm): 100%
Test C disease control rating ([2]; 250 ppm): 100%

C#CCNC(=O)OCc1ccc(-c2noc(C(F)(F)F)n2)o1 [Compound 81]
Test A disease control rating ([1]; 10 ppm): 0%
Test C disease control rating ([2]; 10 ppm): 45%

C#CCNC(=O)OCc1ccc(-c2noc(C(F)(F)F)n2)s1 [Compound 37]
Test A disease control rating ([1]; 50 ppm): 100%
Test C disease control rating ([2]; 50 ppm): 100%

C#CCNC(=O)OCCCc1ccc(-c2noc(C(F)(F)F)n2)cc1 [Compound 30]
Test A disease control rating ([1]; 10 ppm): 100%
Test C disease control rating ([2]; 10 ppm): 99%

CCOC(=O)c1ccc(CNC(=O)OC(C)c2ccc(-c3noc(C(F)(F)F)n3)cc2)cc1 (racemic) [Compound 27]
Test A disease control rating ([1]; 10 ppm): 100%
Test C disease control rating ([2]; 10 ppm): 0%

O=C(OC(c1ccccc1)c1ccc(-c2noc(C(F)(F)F)n2)cc1)n1ccnc1 (stereo not shown) [Compound 111]
Test A disease control rating ([1]; 250 ppm): 100%
Test C disease control rating ([2]; 250 ppm): 100%

CC(OC(N)=O)c1ccc(-c2noc(C(F)(F)F)n2)cc1 (stereo not shown) [Compound 84]
Test A disease control rating ([1]; 10 ppm): 100%
Test C disease control rating ([2]; 10 ppm): 100%

NC(=O)OCCc1ccc(-c2noc(C(F)(F)F)n2)cc1 [Compound 41]
Test A disease control rating ([1]; 10 ppm): 100%
Test C disease control rating ([2]; 10 ppm): 99%

O=C(OCCCc1ccc(-c2noc(C(F)(F)F)n2)cc1)n1ccnc1 [Compound 21]
Test A disease control rating ([1]; 50 ppm): 100%
Test C disease control rating ([2]; 50 ppm): 99%

O=C(OCCc1ccc(-c2noc(C(F)(F)F)n2)cc1)n1ccnc1 [Compound 40, 2-[4-[5-(trifluoromethyl)-1,2,4-oxadiazol-3-yl]phenyl]ethyl-1H-imidazole-1-carboxylate]
pest or weed control at 10 ppm ([1]; 10 ppm): 0%
pest or weed control at 10 ppm ([2]; 10 ppm): 18%

Cc1ccccc1C(OC(=O)n1ccnc1)c1ccc(-c2noc(C(F)(F)F)n2)cc1 (stereo not shown) [Compound 142]
Test A disease control rating ([1]; 10 ppm): 98%
Test C disease control rating ([2]; 10 ppm): 0%

CCOC(=O)c1ccc(NC(=O)OCc2ccc(-c3noc(C(F)(F)F)n3)cc2)cc1 [Compound 57]
Test A disease control rating ([1]; 10 ppm): 100%
Test C disease control rating ([2]; 10 ppm): 0%

CN(C)C(=O)OC(c1ccccc1)c1ccc(-c2noc(C(F)(F)F)n2)cc1 (stereo not shown) [Compound 121]
Test A disease control rating ([1]; 250 ppm): 100%
Test C disease control rating ([2]; 250 ppm): 99%

N#CCNC(=O)OCc1ccc(-c2noc(C(F)(F)F)n2)cc1 [Compound 55]
Test A disease control rating ([1]; 10 ppm): 100%
Test C disease control rating ([2]; 10 ppm): 86%

CCOC(=O)c1ccc(NC(=O)OCCc2ccc(-c3noc(C(F)(F)F)n3)cc2)cc1 [Compound 59]
Test A disease control rating ([1]; 50 ppm): 96%
Test C disease control rating ([2]; 50 ppm): 0%

CC(C)(C)OC(=O)NN=Cc1ccc(-c2noc(C(F)(F)F)n2)cc1 [Compound 106]
Test A disease control rating ([1]; 10 ppm): 97%
Test C disease control rating ([2]; 10 ppm): 68%

CC#CCNC(=O)OCc1ccc(-c2noc(C(F)(F)F)n2)cc1 [Compound 36]
Test A disease control rating ([1]; 10 ppm): 100%
Test C disease control rating ([2]; 10 ppm): 100%

O=C(Nc1cccnc1)OCc1ccc(-c2noc(C(F)(F)F)n2)cc1 [Compound 22]
Test A disease control rating ([1]; 10 ppm): 99%
Test C disease control rating ([2]; 10 ppm): 97%

CC(OC(=O)Nc1cccnc1)c1ccc(-c2noc(C(F)(F)F)n2)cc1 (stereo not shown) [Compound 23, 1-[4-[5-(trifluoromethyl)-1,2,4-oxadiazol-3-yl]phenyl]ethyl N-3-pyridinylcarbamate]
pest or weed control at 10 ppm ([1]; 10 ppm): 100%
pest or weed control at 10 ppm ([2]; 10 ppm): 97%

C#CCCNC(=O)OC(C)c1ccc(-c2noc(C(F)(F)F)n2)cc1 (stereo not shown) [Compound 67]
Test A disease control rating ([1]; 50 ppm): 100%
Test C disease control rating ([2]; 50 ppm): 100%
